This note sets out measurements from patent US20040009485A1, “Cellular arrays for the identification of altered gene expression” (priority 2002, published 2004).

Molecules are shown by their SMILES. Several values for one entry are separate records, joined by “and”; a condition that tells them apart may be missing. Equal values may be shown once. Read-outs that look alike come from different tables or passages of the source.

In assay [1] the test system is heat shock regulon gene fusions. In words: Stress response of heat shock regulon luxCDABE gene fusions (ethanol). The format is cell-based, E. coli. The conditions noted are these: for 3% Ethanol Response ratio: 40 minutes, LB, treated/untreated. Here is the method:
To test the stress responses, one or two single colonies of each selected strain were used to inoculate 5.0 ml of LB medium containing 150 μg/ml of ampicillin. These cultures were grown overnight at 37° C. then diluted by adding 50 μl or 100 μl of the overnight culture into 10.0 ml of fresh LB medium (without ampicillin) and grown with agitation at 37° C. until the culture was in exponential phase with readings on a Klett-Summerson colorimeter containing the red filter of between 10 and 40. These actively growing cultures were immediately used to initiate a stress response experiment by adding 50 μl of cultures to 50 μl of LB medium containing various concentrations of chemical in the wells a 96 well luminometer plate. This division of the actively growing culture at the time of chemical addition ensured identical populations were present when the stress was imposed. Light production was measured in a Dynex ML3000 luminometer at 37° C. The dimensionless units of light production, relative light units (RLU), are obtained by comparison with the light reading from an internal light-emitting diode. The cycle mode of the ML3000 luminometer, similar to previous descriptions (Van Dyk et al., Appl. Environ. Microbiol. 60:1414-120) was used. […]

A further assay deals with SOS regulon gene fusions. The assay can be described thus: Stress response of SOS regulon luxCDABE gene fusions (nalidixic acid). The conditions noted are these: SOS regulon gene fusions; 5, 4, or 3% (v/v) ethanol. The format is cell-based, E. coli. As to the method:
To test the stress responses, one or two single colonies of each selected strain were used to inoculate 5.0 ml of LB medium containing 150 μg/ml of ampicillin. These cultures were grown overnight at 37° C. then diluted by adding 50 μl or 100 μl of the overnight culture into 10.0 ml of fresh LB medium (without ampicillin) and grown with agitation at 37° C. until the culture was in exponential phase with readings on a Klett-Summerson colorimeter containing the red filter of between 10 and 40. These actively growing cultures were immediately used to initiate a stress response experiment by adding 50 μl of cultures to 50 μl of LB medium containing various concentrations of chemical in the wells a 96 well luminometer plate. This division of the actively growing culture at the time of chemical addition ensured identical populations were present when the stress was imposed. Light production was measured in a Dynex ML3000 luminometer at 37° C. The dimensionless units of light production, relative light units (RLU), are obtained by comparison with the light reading from an internal light-emitting diode. The cycle mode of the ML3000 luminometer, similar to previous descriptions (Van Dyk et al., Appl. Environ. Microbiol. 60:1414-120) was used.
The ability of these promoter-luxCDABE fusions to report activation of the SOS stress response was tested using nalidixic acid, a known, potent chemical inducer. The final concentrations of nalidixic acid were 1, 5, 25, and 125 μg/ml for all but strain DPD2293, which was tested at 80, 40, 20, 10, 5, 2.5, and 1.25 μg/ml.
Specificity of responses was tested by measuring the effect of ethanol on these SOS regulon gene fusions.

In assay [2] the test system is clpB-luxCDABE gene fusion. The conditions noted are these: 38 min; for Response Ratio: 4% ethanol; for Light production in LB + 4% ethanol: 37° C. Here is the method: Plasmid DNA was isolated from lux-a.pk043.d3, digested with restriction enzyme XmaI, and ligated with T4 DNA ligase. The ligation reaction was used to transform E. coli strain DPD1675 by electroporation. Transformants were selected by ampicillin resistance. […] Actively growing cultures at 37° C. in LB medium were treated with 4% ethanol arid light production was quantitated at 37° C. using a microplate luminometer (Dynex ML3000). Table 17 summarizes the average bioluminescence of duplicate samples at 38 min after treatment.

The subject of assay [3] is luxCDABE gene fusions of the Lux-A Collection. The assay can be described thus: Induction of Lux-A Collection gene fusions by MMC (and yebF fusion by nalidixic acid). The format is cell-based, E. coli. Here is the method:
The Lux-A Collection of reporter gene fusions was examined for presence of fusions to the genes in Table 11. […] Each of these was tested for induction by MMC at several doses over a time course of 100 minutes.
As expected, the expression of the known SOS genes was elevated; however the expression of several was elevated less than 2-fold (Table 12) and as such were within a large group of 792 genes the expression of which was elevated by 20% or more. Most of these are likely due to artifacts in the array data rather than to actual biologically relevant responses. To test if strains carrying luxCDABE gene fusions would yield the expected positive result, the three gene fusions that were available in the Lux-A Collection of reporter gene fusions were tested for mitomycin C responses.
In this case, a divergent promoter to the purT gene was present in the chromosomal fragment and strains containing the backward yebF fusion produced light. […] […] The orientation of the inserted segment to yield a fusion of yebF to the luxCDABE operon was confirmed by DNA sequence analysis.

Assay [4] deals with luxCDABE gene fusions in lexA+ host. In words: Mitomycin C and nalidixic acid responses in lexA+ host. The conditions noted are these: for MitC Ratio, 2 hr 250 ng/ml: lexA+ host. It is filed as cell-based, E. coli. Here is the method: (§1) In addition, the effect of a lexAind mutation was tested to determine if any of these were part of the SOS regulon. The expectation is that SOS regulon member will be induced by both nalidixic acid and mitomycin C in a manner that is dependent on lexA function (Walker, G. C., (1996) Escherichia coli and Salmonella: Cellular and Molecular Biology ASM Press). […] This is consistent with the observation of upregulation of the b1728 mRNA transcript upon mitomycin C treatment in a LexA dependent fashion (Fernández de Henestrosa et al. (2000). Mol. Microbiol. 35:1560-1572). Likewise, two Gene fusions, those to oraA and yigN were identified is new members of the SOS regulon (Table 16). […] Negative, non-DNA damage responsive gene fusions were also included (Table 16).

Assay [5] concerns luxCDABE gene fusions in lexAind host. The assay can be described thus: Mitomycin C and nalidixic acid responses in lexAind host. It is filed as cell-based, E. coli. The conditions noted are these: for MitC Ratio, 2 hr 250 ng/ml: lexAind host. Here is the method:
as §1

Assay [6] relates to SoxR/S regulon gene fusions. The assay can be described thus: Stress response of SoxR/S regulon luxCDABE gene fusions (methyl viologen). The conditions noted are these: for Methyl viologen response ratio: 250 μg/ml, 120 minutes, LB, treated/untreated. The format is cell-based, E. coli. Here is the method:
Like the SOS and heat shock regulon fusions, these had basal light production greater than the promoterless parental plasmid indicating the presence of a promoter. Responsiveness of four of these strains to a known inducer of the SoxR/S regulon, methyl viologen, was tested at 1000, 500, 250, 125, 62, 31 and 16 μg/ml. […] Table 8 gives the response ratio for 250 μg/ml at 120 minutes of treatment for the four tested strains. Here again, the biologically appropriate response was observed.

Where [7] appears, read: lux-a.pk054.c3 (DPD2243), clpB fusion.
The mark [8] stands for this setting: 1pxA 1pxB rnhB dnaE fusion (lux-a.pk061.c3).
Setting [9] is: dinG ybiB fusion (lux-a.pk0024.f5).
[10] abbreviates: lacZ fusion (65.d4), negative control.
Where [11] appears, read: yciG fusion (lux-a.pk006.b4), negative control.

Consider `CCO` [Ethanol, ethanol], for which the “3% Ethanol Response ratio” value came out at 4.7 in assay [1] (clpB fusion, DPD2243 (lux-a.pk054.c3)); 5.2 in assay [1] (grpE fusion, DPD2241 (lux-a.pk057.h1)); 5.6 in assay [1] (lon fusion, DPD2242 (lux-a.pk021.g11)); 1.4 in assay [1] (rfaDFCL fusion, DPD2244 (lux-a.pk040.e4)); 2.4 in assay [1] (rpoD fusion, DPD2246 (lux-a.pk089.e7)). Besides, in assay [1] (each of the six heat shock fusion strains, at least two of 5, 4, 3, 2 (v/v)% ethanol), the “bioluminescence compared with untreated culture” value is “increased bioluminescence”. Moreover, the “bioluminescence of SOS regulon gene fusions (specificity)” value in the assay with SOS regulon gene fusions is “little to no increased biolumninescence”. Besides, the “Response Ratio” value in assay [2] (Inverted lux-a.pk043.d3 (two transformants)) was 6.5 and 5.5; in assay [2] (setting [7]), 9.4. Moreover, the “Light production in LB + 4% ethanol” value is 0.0025 RLU in assay [2] (lux-a.pk043.d3 (clpB promoter not operably linked)) and 13.00 RLU in assay [2] (setting [7]).

Regarding `CO[C@@]12[C@H](COC(N)=O)C3=C(C(=O)C(C)=C(N)C3=O)N1C[C@@H]1N[C@@H]12` [MMC, mitomycin C], the “Induction of Fusion” value in assay [3] (b1847 (yebF)-luxCDABE fusion (when inverted), MMC) is “YES”; in assay [3] (b1847 (yebF)-luxCDABE fusion (when inverted), MMC, listed as mitomycin C), “induction by mitomycin C was demonstrated”; in assay [3] (dinB (dinP)-luxCDABE fusion, several doses of MMC, time course of 100 minutes) it was “YES”; in assay [3] (dinF-luxCDABE fusion, MMC), “YES”; in assay [3] (dinG-luxCDABE fusion, MMC) it was “YES”; in assay [3] (recA-luxCDABE fusion, several doses of MMC, time course of 100 minutes) it was “YES”. For the same compound, the “Induction of Fusion” value in assay [3] (ruvA-luxCDABE fusion, several doses of MMC, time course of 100 minutes) is “YES”; in assay [3] (uvrA-luxCDABE fusion, several doses of MMC, time course of 100 minutes), “YES”; in assay [3] (uvrD-luxCDABE fusion, MMC), “YES”. Also, the “MitC Ratio, 2 hr 250 ng/ml” value in assay [4] (setting [8]) amounted to 1.06; in assay [4] (b1728 fusion (lux-a.pk033.c5)) it was 8.97; in assay [4] (b1936 fusion (lux-a.pk0019.g1)), 1.22; in assay [4] (setting [9]), 5.01; in assay [4] (fusion (lux-a.pk0015.d6)), 1.12; in assay [4] (setting [10]), 0.80. For the same compound, the “MitC Ratio, 2 hr 250 ng/ml” value in assay [4] (oraA fusion (lux-a.pk058.f5)) came out at 15.27; in assay [4] (yaaF fusion (lux-a.pk031.e7)), 1.02; in assay [4] (setting [11]), 0.56; in assay [4] (yigN fusion (lux-a.pk046.f11)), 9.84; in assay [5] (setting [8]) it was 1.29; in assay [5] (b1728 fusion (lux-a.pk033.c5)) it was 0.90. For the same compound, the “MitC Ratio, 2 hr 250 ng/ml” value turned out to be 2.46 in assay [5] (b1936 fusion (lux-a.pk0019.g1)); 1.15 in assay [5] (setting [9]); 1.73 in assay [5] (fusion (lux-a.pk0015.d6)); 1.24 in assay [5] (setting [10]); 1.21 in assay [5] (oraA fusion (lux-a.pk058.f5)); 0.99 in assay [5] (yaaF fusion (lux-a.pk031.e7)). The results for the “MitC Ratio, 2 hr 250 ng/ml” value in assay [5] (setting [11]) and in assay [5] (yigN fusion (lux-a.pk046.f11)) were 0.61 and 0.93, respectively. For the same compound, the “induction of b1728 promoter-luxCDABE fusion” value was “clearly induced” in assay [4] (lexA+ host (FIG. 9)) and “not induced” in assay [5] (lexAind host strain (FIG. 9)).

For the compound `C[n+]1ccc(-c2cc[n+](C)cc2)cc1` [Methyl viologen, methyl viologen], the “bioluminescence compared with untreated culture” value in assay [6] (each of four SoxR/S fusion strains, each of 1000, 500, 250, 125, 62, 31 and 16 μg/ml) was “induced increased bioluminescence”. The “Methyl viologen response ratio” value in assay [6] (inaA fusion, DPD2087 (lux-a.pk014.a9)) was found to be 9.0; in assay [6] (poxB fusion, DPD3509 (lux-a.pk071.all)), 15.0; in assay [6] (ribA fusion, DPD2286 (lux-a.pk078.d2)), 4.7; in assay [6] (zwf fusion, DPD2272 (lux-a.pk082.g7)), 3.6.
